From PubChem BioAssay (NCI)
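Test compounds were applied to cells in 96-well plates for 48 hours at 5 doses. At the TGI there is no net growth.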

What was measured:
Experiment in all cases: growth of human tumour cells (NCI), 48 h
TK-10 renal = system: TK-10 renal
OVCAR-5 ovarian = system: OVCAR-5 ovarian
MOLT-4 leukemia = system: MOLT-4 leukemia
NCI-H226 lung = system: NCI-H226 lung
HS 578T breast = system: HS 578T breast
SK-MEL-5 melanoma = system: SK-MEL-5 melanoma
BT-549 breast = system: BT-549 breast
DU-145 prostate = system: DU-145 prostate

| SMILES | TGI (TK-10 renal) | TGI (OVCAR-5 ovarian) | TGI (MOLT-4 leukemia) | TGI (NCI-H226 lung) | TGI (HS 578T breast) | TGI (SK-MEL-5 melanoma) | TGI (BT-549 breast) | TGI (DU-145 prostate) |
| --- | --- | --- | --- | --- | --- | --- | --- | --- |
| Cc1ccc(C2SC(N)=Nc3c2c(C)nn3C(=O)c2ccccc2O)cc1 (stereo not given) | > 10 µM | > 10 µM | > 10 µM | > 10 µM | 5.27 µM | > 10 µM | > 10 µM | > 10 µM |
| O=C(NNCc1ccco1)c1cc2ccccc2[nH]1 | > 100 µM | > 100 µM | > 100 µM | > 100 µM | > 100 µM | > 100 µM | > 90.5 µM | > 100 µM |
| Nc1ccc(CCSSCCc2ccc(N)cc2)cc1 | > 100 µM | 83.5 µM | 14.7 µM | > 100 µM | 66.4 µM | > 52.7 µM | 79.1 µM | > 87.4 µM |
| O=C1C=CC2(O)OCCN(CCO)C2=C1 (stereo not given) (tested in a mixture with another compound) | > 100 µM | > 100 µM | > 100 µM | > 100 µM | > 100 µM | > 100 µM | > 100 µM | > 100 µM |
| Cc1ccc2c(c1)CC1(Cc3c(C)cccc3C1=O)C2=O (stereo not given) | > 100 µM | > 100 µM | > 100 µM | > 100 µM | 87.4 µM | > 100 µM | – | > 100 µM |
| CN(N)/N=N/c1nc[nH]c1[N+](=O)[O-] | > 100 µM | > 100 µM | 54.6 µM | > 100 µM | > 100 µM | > 100 µM | > 100 µM | > 100 µM |
| N#Cc1ccc(C(=O)/C=C/c2ccc(O)c(O)c2)cc1 | 27.6 µM | 33.5 µM | 37.6 µM | 62.7 µM | > 76.6 µM | 28.5 µM | 25.3 µM | 30 µM |
| C[N+]1(Cc2ccc(Cl)c(Cl)c2)CCCC1C1CCCN(Cc2ccc(Cl)c(Cl)c2)C1 (stereo not given) | > 100 µM | > 100 µM | > 100 µM | – | > 100 µM | > 100 µM | > 100 µM | > 100 µM |
| Cc1ccc(N2CCC3(CC2)OCCO3)cc1 | > 100 µM | > 100 µM | > 100 µM | > 100 µM | > 100 µM | > 100 µM | > 100 µM | > 100 µM |
| N#Cc1cc(-c2nc3c(F)cccc3s2)ccc1N | > 100 µM | > 100 µM | > 100 µM | > 100 µM | > 100 µM | > 100 µM | > 100 µM | > 100 µM |
| NC(=S)N/N=C1/CCCC2CCCC[C@@H]12 (stereo not given in full) | > 100 µM | > 100 µM | > 100 µM | > 100 µM | > 100 µM | > 100 µM | – | > 100 µM |
| Cc1ccc(/C=C2\CN(C)CC3C2=NN(c2ccccc2)C3c2ccc(C)cc2)cc1 (stereo not given) | > 100 µM | – | > 100 µM | > 100 µM | > 100 µM | > 100 µM | > 100 µM | > 100 µM |
| COC(=O)C(Cc1ccc(Oc2cc(CC(NC(=O)c3ccccc3)C(=O)OC)ccc2OC)cc1)NC(=O)c1ccccc1 (stereo not given) | > 59.8 µM | > 100 µM | > 100 µM | > 64.5 µM | 61.8 µM | 32.9 µM | > 81.3 µM | > 50.3 µM |
| COc1ccc(NC(=O)/C(=N/NC(N)=S)C2C(=O)NC(=S)NC2=O)c(OC)c1 | > 100 µM | > 100 µM | > 100 µM | > 100 µM | > 100 µM | > 100 µM | > 100 µM | > 100 µM |
| COC(=O)[C@@H](NC(=O)N(CCC#N)CCCN(C(=O)N[C@H](Cc1ccccc1)C(=O)OC)c1ccccc1)C(C)C | > 100 µM | > 100 µM | > 100 µM | > 100 µM | > 100 µM | > 100 µM | > 100 µM | > 100 µM |
| O=[N+]([O-])c1cc2c(c([N+](=O)[O-])c1)NCc1ccccc1O2 | > 100 µM | > 100 µM | > 100 µM | > 100 µM | > 100 µM | > 100 µM | > 100 µM | > 100 µM |
| COc1ccc(N2C(=O)C(C)SC2c2cc3cc(Br)ccc3nc2Cl)cc1 (stereo not given) | 91.4 µM | > 100 µM | 79.2 µM | > 100 µM | > 100 µM | > 100 µM | 99.7 µM | > 100 µM |
| CC1=NN(C(=O)CC(=O)Nc2ccc(C)cc2)C(=O)C1N=Nc1ccc(S(=O)(=O)c2ccc(N=NC3C(=O)N(C(=O)CC(=O)Nc4ccc(C)cc4)N=C3C)cc2)cc1 (stereo not given) | > 100 µM | > 100 µM | > 100 µM | > 100 µM | > 100 µM | > 100 µM | > 100 µM | > 100 µM |
| COc1cc([C@H]2CC(=O)C[C@H](c3cc(OC)c(OC)c(OC)c3)C23C(=O)c2ccccc2C3=O)cc(OC)c1OC | > 100 µM | > 100 µM | > 100 µM | > 100 µM | > 100 µM | > 100 µM | > 100 µM | > 100 µM |
| C=CCN1C(=O)/C(=C/c2ccc(C)cc2)NC1=S | > 100 µM | > 100 µM | > 100 µM | > 100 µM | > 100 µM | > 100 µM | > 100 µM | > 100 µM |

| SMILES | TGI (TK-10 renal) | TGI (OVCAR-5 ovarian) | TGI (MOLT-4 leukemia) | TGI (NCI-H226 lung) | TGI (HS 578T breast) | TGI (SK-MEL-5 melanoma) | TGI (BT-549 breast) | TGI (DU-145 prostate) |
| --- | --- | --- | --- | --- | --- | --- | --- | --- |
| CC(=O)N(C(C)=O)n1c(-c2ccccc2)n[nH]c1=O | > 100 µM | > 100 µM | > 100 µM | – | – | > 100 µM | > 100 µM | > 100 µM |
| Cc1cc2nc(N3C(=O)/C(=C/c4ccccc4S)N=C3c3ccccc3)sc2cc1C | > 100 µM | > 100 µM | > 100 µM | – | > 100 µM | > 100 µM | > 100 µM | > 100 µM |
| CN(C(=O)C1CCCCCC1=O)c1ccccc1Cl (stereo not given) | > 100 µM | > 100 µM | > 100 µM | > 100 µM | – | > 100 µM | > 100 µM | > 100 µM |
| COc1ccc(/C=C2\N=C(SC)N(CN3CCCCC3)C2=O)cc1 | > 100 µM | > 100 µM | > 100 µM | > 100 µM | > 100 µM | > 100 µM | – | > 100 µM |
| COCn1cnc2c(=O)n(-c3ccc(OC)cc3)c(=S)n(-c3ccc(OC)cc3)c21 | > 100 µM | > 100 µM | > 100 µM | > 100 µM | – | > 100 µM | > 100 µM | > 100 µM |
| CC(=O)N1C(NN(C)C)CCN1c1ccccc1 (stereo not given) | > 10 µM | – | > 10 µM | – | – | > 10 µM | – | > 10 µM |
| NC(=O)C1Cc2cc3c(cc21)OCO3 (stereo not given) | > 100 µM | > 100 µM | – | > 100 µM | > 100 µM | > 100 µM | > 100 µM | > 100 µM |
| CC(C)=c1sc(=C(C)C)c2c1=NC(C)(C)N=2 | > 100 µM | > 100 µM | > 100 µM | – | > 100 µM | > 100 µM | > 100 µM | > 100 µM |
| COc1ccc(OC2OC(COC(c3ccccc3)(c3ccc(OC)cc3)c3ccc(OC)cc3)C(O)C(O)C2O)cc1 (stereo not given) | – | 20.7 µM | 4.55 µM | 28.3 µM | 19.1 µM | 16.1 µM | 27 µM | 35.7 µM |
| C#C[C@]1(O)CC[C@H]2[C@@H]3CCC4=C/C(=N/NC(=O)c5cccc6cc7ccccc7nc56)CC[C@@H]4[C@H]3CC[C@@]21CC | – | > 100 µM | > 100 µM | > 100 µM | > 100 µM | 63.7 µM | > 100 µM | > 100 µM |
| COC(=O)C1(C(=O)OC)Cc2ccc(C)cc2C2=C1C(=O)c1ccccc1C2=O | > 100 µM | 35.5 µM | 31.7 µM | > 100 µM | > 100 µM | 28.6 µM | – | 36.9 µM |
| O=S(Nc1ccccc1)c1ccc(Cl)c(Cl)c1 (stereo not given) | > 100 µM | – | > 100 µM | > 100 µM | 84.7 µM | 62.5 µM | 54.4 µM | > 100 µM |
| Oc1cc(-c2ccc(Cl)cc2)cn2c1nc1ccccc12 | > 100 µM | – | – | > 100 µM | > 100 µM | – | – | > 100 µM |
| COc1cccc(-c2nc3ccccc3c(=O)[nH]2)c1OC | – | > 100 µM | > 100 µM | > 100 µM | > 100 µM | > 100 µM | > 100 µM | > 100 µM |
| COc1c(Br)cc(/C=C(\C#N)c2cccnc2)cc1Br | > 100 µM | > 100 µM | > 100 µM | > 100 µM | – | > 100 µM | > 100 µM | > 100 µM |
| O=C(Nc1ccccc1)n1[nH]c(=O)n(-c2ccccc2)c1=O | > 100 µM | – | – | > 100 µM | > 100 µM | > 100 µM | > 100 µM | > 100 µM |
| CN1C(=O)C(c2c[nH]c3ccccc23)N(C)C(=O)C1c1c[nH]c2ccccc12 (stereo not given) | > 100 µM | > 100 µM | > 100 µM | – | > 100 µM | > 100 µM | > 100 µM | > 100 µM |
| Cc1ccc(N(C(=O)Nc2ccc(F)c(Cl)c2)C2=NCC(C)S2)cc1 (stereo not given) | > 100 µM | > 100 µM | > 100 µM | – | > 100 µM | 41 µM | – | > 100 µM |
| CN1CCCOC(c2ccc([N+](=O)[O-])cc2)O1 (stereo not given) | > 100 µM | > 100 µM | > 100 µM | > 100 µM | – | > 100 µM | > 100 µM | > 100 µM |
